Where two headings read alike, the source gives them in different places.
Legend:
[1] = In vitro Caco-2 cell monolayer permeability; type: in vitro ADME; conditions: human, equivalent to 50 µg/mL PMX, n = 7, read-out: Apparent permeability (Papp)
Procedure: To compare the in vitro apparent permeability (Papp) of PMX, PMX/DL(1:1), PMX/DL(1:2), PMX/DL(1:1)-CD, and PMX/DL(1:2)-CD across a Caco-2 (ATCC® HTB-37™; American Type Culture Collection, Manassas, VA, USA) cell monolayer, Caco-2 cells were seeded onto 24-well Transwell® filter inserts in Dulbecco's modified Eagle's medium (DMEM) containing 10% (v/v) fetal bovine serum and 1% penicillin/streptomycin, at a density of 1 × 10^5 cells/well, cultured for 14–16 days to form a confluent monolayer with the transepithelial electrical resistance (TEER) >350 Ω·cm^2. After the media in the apical and basolateral compartments were replaced with Hank’s balanced salt solution (HBSS) and stabilized for 20 min at 37 °C, 100 µL of the drug solution diluted with HBSS (equivalent to 50 µg/mL PMX) and 600 µL of HBSS were loaded into the apical and basolateral compartments in each well, respectively. During incubation at 37 °C, 100 µL of sample solution was withdrawn from each basolateral compartment, and the volume was replaced using fresh HBSS at 0.5, 1, 2, 3, 4, and 5 h. After passing through a polyvinylidene fluoride (PVDF) membrane filter (pore size: 0.45 µm), the concentration of PMX in each sample solution was measured using the HPLC system at 254 nm, with a Luna C18 column (4.6 × 250 mm, 5 µm, 100 Å) at 25 °C. […]

[2] = In situ single-pass rat intestinal perfusion; type: in vivo; conditions: other: in situ single-pass intestinal perfusion; for concentration at 15 min / concentration at 30 min / concentration at 45 min / concentration at 60 min / concentration at 75 min / concentration at 90 min / concentration at 105 min / concentration at 120 min: rat, outlet intestinal perfusate, 100 μg/mL, rat intestinal perfusion
Procedure: The in situ single-pass intestinal effective permeabilities (Peff) of PMX, PMX/DL(1:1), PMX/DL(1:2), PMX/DL(1:1)-CD, and PMX/DL(1:2)-CD were investigated in rats. The rats were fasted overnight for 12–16 h with free access to water before the experiment and then anesthetized by intramuscular injection of tiletamine·HCl–zolazepam mixture (1:1 [w/w]; 40 mg/kg). With the animal in the supine position, the abdominal cavity was opened using a midline longitudinal incision, and the intestine (duodenum, jejunum, and ileum) was exposed and subsequently intubated at the two ends with a polypropylene perfusion tube connected to a peristaltic pump (Harvard Apparatus, Holliston, MA, USA). After covering the entire excised area with a cotton pad soaked with warm normal saline, the cannulated intestinal segments were flushed with blank perfusion buffer at 37 °C for 30 min, at a constant flow rate of 0.5 mL/min, to remove residual intestinal contents. Then, drug solutions of PMX, PMX/DL(1:1), PMX/DL(1:2), PMX/DL(1:1)-CD, or PMX/DL(1:2)-CD (equivalent to 100 μg/mL PMX) were perfused through the intestinal lumen at 37 °C and a constant flow rate of 0.2 mL/min. After allowing 30 min to achieve a steady-state, outlet perfusate was collected every 15 min for 120 min. In addition, to assess the reliability of the perfusion study, 100 μg/mL fluorescein diluted in perfusion buffer was perfused separately under the same conditions and the collected samples were analyzed at excitation/emission wavelengths of 494/512 nm using a microplate reader (PerkinElmer multimode plate reader; PerkinElmer, Waltham, MA, USA) as a low-permeability marker. During the experiment, all animals were kept on heated pads under a heat lamp to maintain a normal body temperature. At the end of the experiment, the lengths and radii of the cannulated intestinal segments were measured, taking care to avoid stretching them. The collected samples were then filtered using 0.45-μm PVDF filters and stored at −20 °C before analyses. The outlet concentration of PMX in the perfusate was analyzed by HPLC as described above. In addition, the errors caused by rat intestinal water absorption and secretion during perfusion were corrected by the net water flux (ratio of the […] perfusate flows, Qout/Qin) and the corrected drug concentration in perfusate for each formulation was calculated based on the following equation (i.e. gravimetric method): Cout,corr = Cout × (Qout/Qin), where Cout,corr is the corrected outlet PMX concentration (µg/mL), Cout is the PMX outlet concentration (µg/mL), Qin (mL/min) is the flow rate entering the intestine, and Qout (mL/min) is the measured perfusate exit flow (net weight/15 min, assumed density of 1.0 g/mL) for the specified time interval. After correction, the Peff was calculated using the equation: Peff = Qin/A × ln(Cout,corr/Cin), where A is the intestinal area available for absorption (2πrl) based on its length (l) and radius (r).

[3] = In vivo pharmacokinetic study in rats; set-up: species or system Sprague–Dawley (SD) rats
Procedure: The separated plasma samples were kept at −80 °C before analysis and the drug concentration in each plasma sample was determined by LC-MS. […] Agilent Technologies, Santa Clara, CA, USA), conditioned with 500 µL of methanol, followed by 500 µL of deionized water. After loading the standards or samples into the cartridges, the unadsorbed particles were washed out with 500 µL of deionized water and methanol. […] PMX and IS were ionized using electrospray ionization (ESI) source in positive ion mode under a capillary voltage of 3.5 kV, drying gas flow rate of 3.1 L/min, and drying gas temperature of 300 °C. […] Pharmacokinetic parameters were estimated using a non-compartmental model in WinNonlin® software (ver. 5.3; Pharsight Corp., Mountain View, CA, USA). All data were expressed as means ± standard deviations (SDs), or standard errors of the mean (SEMs). Statistical analysis was performed by one-way analysis of variance (ANOVA) followed by Tukey’s multiple comparison test for unpaired data with more than three means. In all analyses, p < .05 was taken to indicate statistical significance.

[4] = read-out: Corrected outlet PMX concentration (Cout,corr)
[5] = read-out: Outlet concentration of PMX (Cout)
[6] = Sprague-Dawley, rat, plasma, IV, 10 mg/kg PMX
[7] = Sprague-Dawley, rat, plasma, oral, 20 mg/kg PMX

SMILES: Nc1nc2[nH]cc(CCc3ccc(C(=O)N[C@@H](CCC(=O)O)C(=O)O)cc3)c2c(=O)[nH]1 [PMX, Pemetrexed]
- Papp at 5 h, 50 µg/mL [1]: 1.2 ± 0.349 ×10⁻⁶ cm/s
- Papp at 120 min, 100 μg/mL ([2]; rat intestine, n = 4, read-out: Effective permeability (Peff)): 83 ± 4.4 ×10⁻⁶ cm/s
- concentration at 15 min [2, 4]: 93.8 ± 2.73 µg/mL
- concentration at 15 min [2, 5]: 93.1 ± 1.73 µg/mL
- concentration at 30 min [2, 4]: 96 ± 1.36 µg/mL
- concentration at 30 min [2, 5]: 93.2 ± 0.04 µg/mL
- concentration at 45 min [2, 4]: 94.1 ± 0.46 µg/mL
- concentration at 45 min [2, 5]: 92.5 ± 0.51 µg/mL
- concentration at 60 min [2, 4]: 95.4 ± 0.19 µg/mL
- concentration at 60 min [2, 5]: 94.9 ± 0.19 µg/mL
- concentration at 75 min [2, 4]: 95.8 ± 0.87 µg/mL
- concentration at 75 min [2, 5]: 94.7 ± 1.19 µg/mL
- concentration at 90 min [2, 4]: 96.5 ± 0.54 µg/mL
- concentration at 90 min [2, 5]: 95.3 ± 0.87 µg/mL
- concentration at 105 min [2, 4]: 95.8 ± 0.27 µg/mL
- concentration at 105 min [2, 5]: 94.7 ± 1.92 µg/mL
- concentration at 120 min [2, 4]: 96.4 ± 1.52 µg/mL
- concentration at 120 min [2, 5]: 94.7 ± 1.82 µg/mL
- Cmax ([3]; IV, 10 mg/kg PMX): 32.3 ± 1.22 µg/mL
- bioavailability ([3]; IV, 10 mg/kg PMX (reference)): 100%
- AUC(0-inf) [3, 6]: 25300 ± 3560 ng·h/mL
- AUC(0-t) [3, 6]: 25100 ± 3560 ng·h/mL
- half-life [3, 6]: 57.2 ± 2.58 min
- AUC(0-inf) [3, 7]: 8960 ± 89 ng·h/mL
- AUC(0-t) [3, 7]: 3930 ± 380 ng·h/mL
- Tmax [3, 7]: 30 min
- half-life [3, 7]: 786 ± 109 min
- bioavailability ([3]; Sprague-Dawley, rat, plasma, oral, 20 mg/kg PMX, read-out: Bioavailability): 7.8 ± 0.755%
- Cmax ([3]; Sprague-Dawley, rat, plasma, oral, 20 mg/kg PMX, read-out: Cmax): 0.579 ± 0.073 µg/mL

From publication PMC8567874, “Metronomic delivery of orally available pemetrexed-incorporated colloidal dispersions for boosting tumor-specific immunity” (Drug Delivery, 2021)
